# Source: patent US20150158931A1, “CYSTEINE PROTEASE CAPTURING AGENTS” (Stichting Het Nederlands Kanker Instituut, priority 2012, published 2015)
# Primed or numbered codes have the meaning given here. PEG4′ = not defined here; PRG = propargyl
# Legend:
# [1] = tested on: SENPs (GST-SENP1, SENP6, SENP7); test: Labeling of SENPs with SUMO-PRG peptides (SDS-PAGE, fluorescence); type: binding, human; conditions: for selective capturing / binding of SENPs: SENPs 1 μM, peptides 50 μM, 1 hour at RT; for binding to SENPs denatured prior to addition of the peptides: hydrolases denatured (1x LB, 5 min boiling) before peptide
# Protocol: The following experiment was performed to confirm that propargyl modified SUMO peptide (fragments) in accordance with the invention are selective capturing agent for the corresponding SENPs. The following SUMO peptides and SENPs were used in the Experiment. • SUMO peptides: • SUMO1=Cy5-PEG4-YQEQTG-PRG • SUMO2,3=Cy5-PEG4-FQQQTG-PRG • SENPs: • GST-SENP1 (43 kDa) • SENP6 (33.1 kDa) • SENP7 (37.2 kDa)
# The SENPs (1 μM final concentration) were incubated with the SUMO-PRG peptides (50 μM final concentrations) for 1 hour at RT in buffer (20 mM Tris, 100 mM NaCl, 1 mM DTT, pH 7.5). Samples were denatured using 1× LB and boiled for 5 min. As a control, the SENPs were denatured (1×LB and 5 min. boiling) prior to treatment with the SUMO-PRG peptides. Samples were resolved by SDS-PAGE (12% polyacryl amide, MES buffer) and proteins were visualized by fluorescence (λex,em=625,680 nm) and CBB staining.
# DUBs in cell lysates = test: Labeling of active DUBs in cell lysates at endogenous levels with fluorescent probe; type: binding; conditions: fluorescence
# [2] = tested on: GFP-DUB fusions (catalytic cysteine to serine mutants); test: Labeling of overexpressed GFP-DUB fusions in cell lysates; type: binding; conditions: transfected cells, lysate
# Protocol: For overexpression of GFP-tagged DUBs in cells, wild type USP14, Otub1, Otub2, Otud1 and POH1 were subcloned from pDEST-cDNA constructs (Addgene) into the eGFP-C1 vector system (Clontech) at XhoI/EcoRI restriction sites. Mutagenesis of catalytic Cysteines was performed by standard protocols (Stratagene) using the following primers (sites of mutagenesis underlined): USP14-C114S forward-CTTGGTAACACTTCTTACATGAATGCC, reverse-GGCATTCATGTAAGAAGTGTTACCAAG; Otub1-C9/S forward-CCTGACGGCAACTCTTTCTATCGGGC, reverse-GC CCGATAGAAAGAGTTGCCGTCAGG; Otub2-C51S forward-GG GATGGGAACTCCTTCTACAGGGCC, reverse-GGCCCTGTAGAAGGAGTTCCCATCCC. […] Reactions were stopped by the addition sample loading buffer supplemented with (β-mercaptoethanol, followed by boiling for 10 min. Samples were resolved on 4-12% MOPS NU-PAGE Gels (Invitrogen) and probe reactivity was assessed by TAMRA fluorescence scanning as described above. Gels were then transferred onto Nitrocellulose membranes and immunoblotted using anti-GFP serum produced in rabbit and mouse anti-β-actin (Sigma-Aldrich). Immunoblots were visualized using a Licor Odyssey. The following fluorescent secondary antibodies purchased from LICOR were used: anti-mouse-680, anti-rabbit-800.
# UCH-L3 [3] = target: T1, UCH-L3 (Homo sapiens, UniProt P15374); test: Reaction between Ubiquitin75-propargylamide and UCH-L3 (LC-MS, SDS-PAGE); type: binding
# T1 construct: made in house
# T1 sequence (P15374 1-230): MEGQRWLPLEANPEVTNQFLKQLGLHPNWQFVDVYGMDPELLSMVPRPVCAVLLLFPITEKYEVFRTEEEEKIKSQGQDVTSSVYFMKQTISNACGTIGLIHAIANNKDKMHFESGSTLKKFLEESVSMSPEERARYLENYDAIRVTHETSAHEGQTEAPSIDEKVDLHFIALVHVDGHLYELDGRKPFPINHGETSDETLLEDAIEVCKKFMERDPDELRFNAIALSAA
# Protocol: Recombinant UCH-L3 was expressed and purified as described previously (C. N. Larsen, J. S. Price, K. D. Wilkinson, Biochemistry 35, 6735 (1996)).
# (§1) General procedure: DUB was dissolved in PBS with 5 mM dithiothreitol to a concentration of 1 mg/mL.
# cysteine protease DUBs = test: Reaction between Ubiquitin75-propargylamide and DUBs, in vitro labeling; type: binding; conditions: including OTU-domain containing DUBs
# Protocol: as §1
# papain = target: T2, papain (Carica papaya, UniProt P00784); test: In vitro labeling reaction of cysteine proteases: papain; type: binding
# T2 construct: papain, a general cysteine protease obtained from Papaya Latex; from tissue; host or cells: papaya latex
# T2 sequence (P00784 134-345): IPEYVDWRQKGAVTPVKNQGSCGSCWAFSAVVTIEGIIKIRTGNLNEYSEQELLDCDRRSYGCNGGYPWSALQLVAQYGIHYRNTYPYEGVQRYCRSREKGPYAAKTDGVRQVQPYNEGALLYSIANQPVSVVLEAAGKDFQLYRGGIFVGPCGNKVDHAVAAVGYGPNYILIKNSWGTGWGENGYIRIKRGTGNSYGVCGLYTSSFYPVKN
# Protocol: as §1
# SENP-1 = test: In vitro labeling reaction of cysteine proteases: SENP-1; type: binding
# Protocol: as §1
# ubiquitin ligase E1 = target: T3, ubiquitin ligase E1 (Homo sapiens, UniProt P22314); test: In vitro labeling reaction: ubiquitin ligase E1; type: binding
# T3 sequence (P22314 1-1058): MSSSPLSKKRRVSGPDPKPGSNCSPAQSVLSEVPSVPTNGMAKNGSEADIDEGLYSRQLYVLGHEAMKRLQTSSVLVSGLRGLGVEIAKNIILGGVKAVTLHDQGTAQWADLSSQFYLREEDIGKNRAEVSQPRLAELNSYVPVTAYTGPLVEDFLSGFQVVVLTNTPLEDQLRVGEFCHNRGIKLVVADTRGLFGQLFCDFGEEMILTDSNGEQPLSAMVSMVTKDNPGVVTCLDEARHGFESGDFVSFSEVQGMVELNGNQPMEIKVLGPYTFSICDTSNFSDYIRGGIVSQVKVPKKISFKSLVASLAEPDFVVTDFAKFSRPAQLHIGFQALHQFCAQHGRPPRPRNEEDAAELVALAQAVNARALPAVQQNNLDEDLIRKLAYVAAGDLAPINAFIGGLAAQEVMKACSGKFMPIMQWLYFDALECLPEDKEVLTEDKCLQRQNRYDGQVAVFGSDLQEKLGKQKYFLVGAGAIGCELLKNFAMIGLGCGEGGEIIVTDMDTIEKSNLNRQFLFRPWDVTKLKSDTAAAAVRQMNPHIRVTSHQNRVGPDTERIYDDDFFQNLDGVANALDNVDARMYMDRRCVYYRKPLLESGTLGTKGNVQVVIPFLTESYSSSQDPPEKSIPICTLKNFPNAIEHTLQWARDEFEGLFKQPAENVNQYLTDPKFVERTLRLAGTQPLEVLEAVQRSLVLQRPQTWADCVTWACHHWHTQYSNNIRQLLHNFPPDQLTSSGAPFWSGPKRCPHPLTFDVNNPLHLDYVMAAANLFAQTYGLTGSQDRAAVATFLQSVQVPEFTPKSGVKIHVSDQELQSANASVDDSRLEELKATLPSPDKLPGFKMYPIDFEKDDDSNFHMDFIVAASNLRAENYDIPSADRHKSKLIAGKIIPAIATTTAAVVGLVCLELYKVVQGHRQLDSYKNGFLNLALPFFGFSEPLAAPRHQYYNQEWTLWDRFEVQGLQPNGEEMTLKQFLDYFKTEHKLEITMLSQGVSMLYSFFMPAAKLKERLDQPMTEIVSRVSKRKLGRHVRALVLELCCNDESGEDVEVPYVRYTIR
# Protocol: as §1
# UCH-L3 [4] = target: T1, UCH-L3; test: Acid cleavage of the complex between Ubiquitin75-propargylamide and the DUBs; conditions: incubation with various acids
# Protocol: To a solution of Ubiquitin75-propargylamide-UCH-L3 complex in PBS (3 mg/mL; 10 μL) was added a 3-fold concentrated solution of the tested acid. The reactions were incubated overnight and analyzed by SDS-PAGE chromatography and/or mass spectrometry.
# UCH-L3 [5] = target: T1, UCH-L3; test: Thioradical-mediated cleavage of Ub-Prg-UCH-L3 complex; conditions: ethane thiol 50 mM, VA-044 10 mM, three hours
# Protocol: The reaction was incubated for 30 minutes at 37° C. and was buffer exchanged into water by PD-10 column (GE Healthcare) and lyophilized overnight. The resulting white powder was dissolved in PBS (100 μL) and to 90 μL of this solution 10 μL of ethanethiol was added (143 μmole) and VA-044 to a final concentration of 10 mM. The reaction was shaken at 37° C. for three hours prior to LC-MS analysis.
# To a solution of Ub-prg-UCH-L3 complex in PBS (0.5 mg/mL; 80 μL) various amounts of thiol were added to the final concentrations indicated. Radical initiator VA-044 was added at the concentrations indicated and the reaction was shaken at 37° C. for 3 hours after which the reactions were analysed by non-reducing SDS-PAGE.
substance,measurement,setting,value
"Cy5-PEG4-FQQQTG-PRG ({Cy5-PEG4′}-FQQQTG-{PRG}) [SUMO2,3, truncated fluorescent C-terminal propargylated SUMO peptide, C-termini of SUMO-2 and SUMO-3]",selective capturing / binding of SENPs,[1],selective binding
same,binding to SENPs denatured prior to addition of the peptides,[1],completely abolishes binding
"Cy5-PEG4-YQEQTG-PRG ({Cy5-PEG4′}-YQEQTG-{PRG}) [SUMO1, truncated fluorescent C-terminal propargylated SUMO peptide, C-terminus of SUMO-1]",selective capturing / binding of SENPs,[1],selective binding
same,binding to SENPs denatured prior to addition of the peptides,[1],completely abolishes binding
TMR-Ub-Prg: N-terminally tetramethylrhodamine (TMR) labeled analogue of Ub-Prg,labeling of active DUBs in lysates at endogenous levels,DUBs in cell lysates,clear labeling results
same,"reaction with DUB mutants, active site cysteine mutated to serine",[2],failed to react
Ubiquitin75-propargylamide [Ub-Prg],"bond formation with UCH-L3, stable to denaturing LC-MS and denaturing SDS-PAGE","UCH-L3 [3]; 1.2 molar equivalents, 37 °C, 30 minutes",forms a bond with UCH-L3
same,reactivity with UCH-L3 after pre-treatment with iodoacetamide,UCH-L3 [3]; UCH-L3 pre-treated with general alkylating agent iodoacetamide,abolished all reactivity
same,complex formation with radical scavenger,UCH-L3 [3]; presence of excess radical scavenger,complex formation
same,reaction in vitro with cysteine protease DUBs,cysteine protease DUBs,react in vitro with all cysteine protease DUBs tested
same,reaction in vitro with cysteine protease DUBs,cysteine protease DUBs; listed as Ubiquitin-propargyl,reacts with all classes of cysteine deubiquitinating enzymes
same,reactivity towards papain,papain,unreactive
same,reactivity towards SENP-1,SENP-1,unreactive
same,reactivity towards ubiquitin ligase E1,ubiquitin ligase E1,no reactivity
same,"reaction with DUB mutants, active site cysteine mutated to serine",[2],abolished binding
same,acid lability of complex with UCH-L3,UCH-L3 [4],cleavage of the complex
same,thioradical treatment of purified complex with UCH-L3,UCH-L3 [5],cleavage was observed
